Counter-ions that a name gives are not always drawn. Like-named read-outs stand apart in the source and are kept apart here.
What was measured:
[1] = target: Cbl-b (Homo sapiens (Human), UniProt Q13191); assay: Cbl-b LCK Ub TR-FRET assay (Cbl-b Lck HTRF); format: biochemical
Method in brief: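 TR-FRET (340 nm excitation, 615/665 nm emission) read after adding HA-ubiquitin–UBE2D2 thioester, anti-HA-D2 and streptavidin-Eu. Beforehand, compounds incubated 60 min with biotinylated Cbl-b, then 90 min with His-LCK and ATP (1 mM in 2× mix); IC50 from 10 concentrations, DMSO high and no-LCK low controls.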

[2] = target: c-Cbl (Homo sapiens (Human), UniProt P22681); assay: C-Cbl LCK Ub TR-FRET assay (c-cbl Lck HTRF); format: biochemical; conditions: for (fold-selectivity): C-cbl Lck HTRF IC50 relative to Cbl-b Lck HTRF IC50
Chain of c-Cbl (P22681 47-435): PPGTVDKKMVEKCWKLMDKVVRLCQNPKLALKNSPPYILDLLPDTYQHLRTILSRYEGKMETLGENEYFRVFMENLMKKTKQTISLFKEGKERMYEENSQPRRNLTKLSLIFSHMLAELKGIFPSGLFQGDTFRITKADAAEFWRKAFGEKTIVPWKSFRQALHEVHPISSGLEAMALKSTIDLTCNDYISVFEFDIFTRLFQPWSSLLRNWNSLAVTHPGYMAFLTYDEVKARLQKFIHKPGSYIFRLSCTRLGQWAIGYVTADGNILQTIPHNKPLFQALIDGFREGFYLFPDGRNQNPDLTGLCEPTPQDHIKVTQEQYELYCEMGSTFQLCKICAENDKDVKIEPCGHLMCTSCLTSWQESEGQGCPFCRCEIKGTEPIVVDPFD
Method in brief: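 After the ubiquitination reaction, detection mixture was added and plates incubated 20 min at room temperature before reading. IC50 values were calculated with wells lacking LCK as the low control and DMSO as the high control.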

Chain of Cbl-b (Q13191 40-426): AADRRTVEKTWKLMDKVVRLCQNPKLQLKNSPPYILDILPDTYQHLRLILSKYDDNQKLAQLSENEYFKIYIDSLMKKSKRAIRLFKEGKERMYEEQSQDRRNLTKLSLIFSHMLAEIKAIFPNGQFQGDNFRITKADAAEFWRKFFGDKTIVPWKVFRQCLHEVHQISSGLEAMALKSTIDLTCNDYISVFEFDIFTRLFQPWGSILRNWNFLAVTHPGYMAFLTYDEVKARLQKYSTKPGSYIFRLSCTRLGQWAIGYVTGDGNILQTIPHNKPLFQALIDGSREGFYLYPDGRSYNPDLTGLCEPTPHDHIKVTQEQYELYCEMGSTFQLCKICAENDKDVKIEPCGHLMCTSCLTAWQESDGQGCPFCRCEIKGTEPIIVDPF

| SMILES | IC50 [1] | IC50 [2] | (fold-selectivity) [2] | IC50 ([1]; formate) | IC50 ([2]; formate) |
| --- | --- | --- | --- | --- | --- |
| CN1CCN(Cc2cc3c(c(C(F)(F)F)c2)CN(c2cccc(C4(Cc5nncn5C)CC(F)(F)C4)c2)C3=O)CC1C1CC1 (centres unmarked) [Compound 403, 6-((3-cyclopropyl-4-methylpiperazin-1-yl)methyl)-2-(3-(3,3-difluoro-1-((4-methyl-4H-1,2,4-triazol-3-yl)methyl)cyclobutyl)phenyl)-4-(trifluoromethyl)isoindolin-1-one] | 45 nM | 45 nM | (1.0x) |  |  |
| CCOc1cc(C2(Cc3nncn3C)CCC2)cc(N2Cc3c(cc(CN4CCN(C)C[C@@H]4C(C)C)cc3C(F)(F)F)C2=O)n1 [Compound 404, (S)-2-(6-ethoxy-4-(1-((4-methyl-4H-1,2,4-triazol-3-yl)methyl)cyclobutyl)pyridin-2-yl)-6-((2-isopropyl-4-methylpiperazin-1 - yl)methyl)-4-(trifluoromethyl)isoindolin-1-one] | 10 nM | 5.4 nM | (0.54x) |  |  |
| CC(C)[C@H]1CN(C2CC2)CCN1Cc1cc2c(c(C(F)(F)F)c1)CN(c1cccc(C3([C@@H](F)c4nncn4C)COC3)c1)C2=O [Compound 405, 6-(((S)-4-cyclopropyl-2-isopropylpiperazin-1-yl)methyl)-2-(3-(3-((R)-fluoro(4-methyl-4H-1,2,4-triazol-3-yl)methyl)oxetan-3-yl)phenyl)-4-(trifluoromethyl)isoindolin-1-one] | 18 nM | 16 nM | (0.91x) |  |  |
| CC(C)[C@@H]1CN(Cc2cc3c(c(C(F)(F)F)c2)CN(c2cccc(C4([C@@H](F)c5nncn5C)COC4)c2)C3=O)CCN1C [Compound 406, 2-(3-(3-((R)-fluoro(4-methyl-4H-1,2,4-triazol-3-yl)methyl)oxetan-3-yl)phenyl)-6-(((R)-3-isopropyl-4-methylpiperazin-1-yl)methyl)-4-(trifluoromethyl)isoindolin-1-one] | 75 nM | 84 nM | (1.1x) |  |  |
| CC(C)[C@H]1CN(C)CCN1Cc1cc2c(c(C(F)(F)F)c1)CN(c1cccc(C3(Cc4nncn4C)COC3)c1)C2=O [Compound 407, (S)-6-((2-isopropyl-4-methylpiperazin-1-yl)methyl)-2-(3-(3-((4-methyl-4H-1,2,4-triazol-3-yl)methyl)oxetan-3-yl)phenyl)-4-(trifluoromethyl)isoindolin-1-one] | 7.1 nM | 5.7 nM | (0.80x) |  |  |
| CC(C)Nc1cc(N2Cc3c(cc(CN4CCN(C)C[C@@H]4C(C)C)cc3C(F)(F)F)C2=O)cc(C2(Cc3nncn3C)CCC2)c1 [Compound 408, (S)-6-((2-isopropyl-4-methylpiperazin-1-yl)methyl)-2-(3-(isopropylamino)-5-(1-((4-methyl-4H-1,2,4-triazol-3-yl)methyl)cyclobutyl)phenyl)-4-(trifluoromethyl)isoindolin-1-one] | 13 nM | 9.1 nM | (0.68x) |  |  |
| CC(C)Nc1cc(C2(Cc3nncn3C)CCC2)cc(N2Cc3c(cc(CN4CCN(C)C[C@@H]4C(C)C)cc3C(F)(F)F)C2=O)n1 [Compound 409, (S)-6-((2-isopropyl-4-methylpiperazin-1-yl)methyl)-2-(6-(isopropylamino)-4-(1-((4-methyl-4H-1,2,4-triazol-3-yl)methyl)cyclobutyl)pyridin-2-yl)-4-(trifluoromethyl)isoindolin-1-one] | 12 nM | 5.9 nM | (0.48x) |  |  |
| CN1CC2CC(C1)N2Cc1cc2c(c(C(F)(F)F)c1)CN(c1cccc(C3(Cc4nncn4C)CC(F)(F)C3)c1)C2=O [Compound 412, 2-(3-(3,3-difluoro-1-((4-methyl-4H-1,2,4-triazol-3-yl)methyl)cyclobutyl)phenyl)-6-((3-methyl-3,6-diazabicyclo[3.1.1]heptan-6-yl)methyl)-4-(trifluoromethyl)isoindolin-1-one] | 50 nM | 51 nM | (1.1x) |  |  |
| CN1CC2CC(C1)N2Cc1cc2c(c(C(F)(F)F)c1)CN(c1cccc(C3(Cc4nncn4C)CC(F)(F)C3)c1)C2=O [Compound 413, 2-(3-(3,3-difluoro-1-((4-methyl-4H-1,2,4-triazol-3-yl)methyl)cyclobutyl)phenyl)-6-((3-methyl-3,6-diazabicyclo[3.1.1]heptan-6-yl)methyl)-4-(trifluoromethyl)isoindolin-1-one formate] |  |  |  | 56 nM | 50 nM |

Now from value to molecule, other results behind:

| IC50 [1] | IC50 [2] | (fold-selectivity) [2] | SMILES | IC50 ([1]; formate) | IC50 ([2]; formate) |
| --- | --- | --- | --- | --- | --- |
| 12 nM | 77 nM | (0.62x) | CC(C)[C@H]1CN(C)CCN1Cc1cc2c(c(C(F)(F)F)c1)CN(c1cccc(C3(Cc4nncn4C)CCC3)c1)C2=O [Compound 410, (S)-6-((2-isopropyl-4-methylpiperazin-1-yl)methyl)-2-(3-(1-((4-methyl-4H-1,2,4-triazol-3-yl)methyl)cyclobutyl)phenyl)-4-(trifluoromethyl)isoindolin-1-one] |  |  |
| 48 nM | 43 nM | (0.88x) | CN1CCN(Cc2cc3c(c(C(F)(F)F)c2)CN(c2cccc(C4(Cc5nncn5C)CC(F)(F)C4)c2)C3=O)CC1 [Compound 411, 2-(3-(3,3-difluoro-1-((4-methyl-4H-1,2,4-triazol-3-yl)methyl)cyclobutyl)phenyl)-6-((4-methylpiperazin-1-yl)methyl)-4-(trifluoromethyl)isoindolin-1-one] |  |  |
| 88 nM | 68 nM | (0.77x) | CN1C[C@@H]2C[C@H]1CN2Cc1cc2c(c(C(F)(F)F)c1)CN(c1cccc(C3(Cc4nncn4C)CC(F)(F)C3)c1)C2=O [Compound 414, 2-(3-(3,3-difluoro-1-((4-methyl-4H-1,2,4-triazol-3-yl)methyl)cyclobutyl)phenyl)-6-(((1S,4S)-5-methyl-2,5-diazabicyclo[2.2.1]heptan-2-yl)methyl)-4-(trifluoromethyl)isoindolin-1-one] |  |  |
| 16 nM | 14 nM | (0.91x) | CC(C)NCc1cc2c(c(C(F)(F)F)c1)CN(c1cccc(C3(Cc4nncn4C)CC(F)(F)C3)c1)C2=O [Compound 415, 2-(3-(3,3-difluoro-1-((4-methyl-4H-1,2,4-triazol-3-yl)methyl)cyclobutyl)phenyl)-6-((isopropylamino)methyl)-4-(trifluoromethyl)isoindolin-1-one] |  |  |
| 92 nM | 110 nM | (1.2x) | CC(C)N(C)Cc1cc2c(c(C(F)(F)F)c1)CN(c1cccc(C3(Cc4nncn4C)CC(F)(F)C3)c1)C2=O [Compound 416, 2-(3-(3,3-difluoro-1-((4-methyl-4H-1,2,4-triazol-3-yl)methyl)cyclobutyl)phenyl)-6-((isopropyl(methyl)amino)methyl)-4-(trifluoromethyl)isoindolin-1-one] |  |  |
| 57 nM | 52 nM | (0.93x) | CC(C)NCc1cc2c(c(C(F)(F)F)c1)CN(c1cccc(C3([C@@H](F)c4nncn4C)CC(F)(F)C3)c1)C2=O [Compound 417, (R)-2-(3-(3,3-difluoro-1-(fluoro(4-methyl-4H-1,2,4-triazol-3-yl)methyl)cyclobutyl)phenyl)-6-((isopropylamino)methyl)-4-(trifluoromethyl)isoindolin-1-one] |  |  |
| 32 nM | 37 nM | (1.2x) | CC(C)NCc1cc2c(c(C(F)(F)F)c1)CN(c1cccc(C3([C@H](F)c4nncn4C)CC(F)(F)C3)c1)C2=O [Compound 418, (S)-2-(3-(3,3-difluoro-1-(fluoro(4-methyl-4H-1,2,4-triazol-3-yl)methyl)cyclobutyl)phenyl)-6-((isopropylamino)methyl)-4-(trifluoromethyl)isoindolin-1-one] |  |  |
| 360 nM | 420 nM | (1.2x) | CC(C)N(C)Cc1cc2c(c(C(F)(F)F)c1)CN(c1cccc(C3([C@@H](F)c4nncn4C)CC(F)(F)C3)c1)C2=O [Compound 419, (R)-2-(3-(3,3-difluoro-1-(fluoro(4-methyl-4H-1,2,4-triazol-3-yl)methyl)cyclobutyl)phenyl)-6-((isopropyl(methyl)amino)methyl)-4-(trifluoromethyl)isoindolin-1-one] |  |  |
| 240 nM | 220 nM | (0.91x) | CC(C)N(C)Cc1cc2c(c(C(F)(F)F)c1)CN(c1cccc(C3([C@H](F)c4nncn4C)CC(F)(F)C3)c1)C2=O [Compound 420, (S)-2-(3-(3,3-difluoro-1-(fluoro(4-methyl-4H-1,2,4-triazol-3-yl)methyl)cyclobutyl)phenyl)-6-((isopropyl(methyl)amino)methyl)-4-(trifluoromethyl)isoindolin-1-one] |  |  |
| 15 nM | 11 nM | (0.72x) | CC[C@H]1CN(Cc2cc3c(c(C(F)(F)F)c2)CN(c2cccc(C4(Cc5nncn5C)CC(F)(F)C4)c2)C3=O)CCN1C [Compound 421, (S)-2-(3-(3,3-difluoro-1-((4-methyl-4H-1,2,4-triazol-3-yl)methyl)cyclobutyl)phenyl)-6-((3-ethyl-4-methylpiperazin-1-yl)methyl)-4-(trifluoromethyl)isoindolin-1-one] |  |  |
| 16 nM | 17 nM | (1.1x) | Cn1cnnc1CC1(c2cccc(N3Cc4c(cc(OCc5c[nH]cn5)cc4C(F)(F)F)C3=O)c2)CC(F)(F)C1 [Compound 422, 6-((1H-imidazol-4-yl)methoxy)-2-(3-(3,3-difluoro-1-((4-methyl-4H-1,2,4-triazol-3-yl)methyl)cyclobutyl)phenyl)-4-(trifluoromethyl)isoindolin-1-one] |  |  |
